{"source": "patent US20120157396A1", "about": "“PYRAZINAMIDE FOR IMMUNOSTIMULATION AND THE TREATMENT OF LEISHMANIASES” (priority 2009, published 2012)", "key": {"[1]": {"system": "bone marrow-derived macrophages", "experiment": "Cytokine and NO production in bone marrow-derived macrophages", "assay_type": "cell-based, C57BL/6 mice", "design": "unit not given here", "settings": "macrophage, drug 100 μM"}, "[2]": {"system": "Leishmania", "experiment": "J774 cells infected with old- and new-world Leishmania species, 48 hr post treatment", "assay_type": "cell-based", "text": "FIG. 8. Effect of PZA on J774 cells infected with Leishmania 48 hr post treatment. Data expressed as % survival compared to untreated control (100% survival). Mean±SD of 3 independent determinations.\nFIG. 9. A. Effect of 5-Chloro PZA on J774 cells infected with Leishmania, 48 hr post treatment. Data expressed as % survival compared to untreated control (100% survival). Mean±SD of 3 independent determinations. […] B. Cytokine IL-2 production—5-Chloro PZA stimulated 2× more proinflammatory cytokines than PZA, even in Leishmania-infected macrophages (similar results with IFNγ, TNFα, NO)."}, "[3]": {"system": "L. major", "assay_type": "in vivo, C57BL/6 mice", "description": "Mouse Model of CL. To assess the in vivo efficacy of PZA in a relevant in vivo model of cutaneous leishmaniasis, C57BL/6 mice were intradermally infected with 5×10^5 L. major parasites per ear (n=6 mice, 12 ears). One day after infection, mice were treated orally with PZA at several concentrations (900-150 mg/kg) for four weeks, five days a week. […] Parasite burden in ears was determined at 5 weeks post infection in all experimental groups.\nMice (n=6) were anesthetized with isoflurane (Abbott Laboratories, Chicago, Ill.) and vaccinated intradermally in both ears with 5×10^5 L. major promastigotes in a volume of 10 μl using a 27½ G needle. PZA was diluted in water and administered by oral gavage in a 0.2 ml volume. A control group was treated with water containing DMSO (3.8%). The timetable for the experiment was as follows: day 0, infection; days 1-5, 8-12, 15-19 and 22-26, drug administration, and day 70, sacrifice. Lesion size was monitored 1-2 times per week by measuring the lesion diameter with a vernier caliper. Mice were sacrificed by CO2 inhalation.\nParasite loads in the ears were determined as previously described. Briefly, the ventral and dorsal sheets of the infected ears were separated and deposited in RPMI containing 100 U/ml penicillin/100 μg/ml streptomycin and Liberase CI enzyme blend (Boehringer Mannheim, 0.5 mg/ml). Ears were incubated for 60 min at 37° C. The sheets were dissociated using a handheld tissue homogenizer. The homogenates were filtered using a 70 μm an cell strainer (BD Falcon, San Jose, Calif.) and serially diluted in a 96-well flat bottom microtiter plate containing biphasic medium prepared using 50 μl NNN medium containing 20% of defibrinated rabbit blood overlaid with 100 μl medium 199. The number of viable parasites in each ear was estimated from the highest dilution at which promastigotes could be grown out after 7 days of incubation at 26° C."}, "[4]": {"system": "J774 cells", "experiment": "J774 cell activation, surface markers by flow cytometry", "assay_type": "cell-based, murine", "settings": "10 and 100 μM, with or without L. major", "description": "Because of the strong in vivo effect of PZA, we studied the effect of treatment on macrophages. First, we looked at activation markers and cytokine secretion by J774 cells (a murine macrophage cell line) following treatment with PZA (10 and 100 μM) in the presence or absence of L. major infection (1:5 macrophage:parasite ratio) were examined. As a positive control, cells were exposed to a mixture of IFN-γ and LPS, known to increase the level of activation. Expression of surface molecules was determined in unstimulated cells, and on infected, untreated cultures. Twenty-four hours after infection and/or treatment, cells were collected and stained with fluorescent antibodies against the co-stimulatory molecules CD80 and CD86, as well as MHC Class II, and analyzed by flow cytometry.\nJ774 cells or bone marrow-derived cells were seeded onto 24-well plates at a concentration of 5×10^5 cells/ml. Twenty-four hours later, PZA was added to the wells at different concentrations in the absence or presence of L. major (1:5 parasite ratio). In some experiments, J774 cells were treated with amphotericin B (0.1, 0.5, or 1 μg/ml). […] For each sample, at least 50,000 cells were analyzed. The data were collected and analyzed using CELLQuest software and a FACScalibur flow cytometer (Becton Dickinson, San Jose, Calif.)."}, "[5]": {"system": "J774 cells", "experiment": "Cytokine (ELISA) and nitric oxide (Griess test) production in J774 cells", "assay_type": "cell-based, murine", "settings": "for production of cytokines (IL-12, TNF-α) and NO release: J774 cells, irrespective of infection (FIG. 14)", "description": "The ability of J774 cells to produce cytokines in response to infection and/or treatment was also determined. Cells were infected, treated or activated as described above. The amount of the proinflammatory cytokines IL-12 and TNF-α (implicated in Thl response and parasite killing), as well as the repressive cytokine IL-10, was determined by ELISA in the culture supernatants. The level of nitric oxide was also determined in the same supernatants. PZA treatment alone increased cytokine production, especially IL-12 and TNF-α and NO release. […] Finally, to test the specificity of the immune activation by PZA, we determined the effect that amphotericin B treatment had on activation and cytokine expression by J774 cells.\nJ774 cells or bone marrow-derived cells were seeded onto 24-well plates at a concentration of 5×10^5 cells/ml. Twenty-four hours later, PZA was added to the wells at different concentrations in the absence or presence of L. major (1:5 parasite ratio). In some experiments, J774 cells were treated with amphotericin B (0.1, 0.5, or 1 μg/ml). Two control groups were also included in this experiment: a positive control of activation consisting in a group of uninfected cells treated with 100 ng/ml LPS and 10 IU IFN-γ as a positive control of activation, and a negative control of activation, consisting in uninfected, untreated cells. Cell cultures were maintained overnight, and then cultured for an additional 6 h with brefeldin A (10 μg/ml), harvested by scraping and fixed in 2% paraformaldehyde. Prior to staining, cells were incubated with an anti-Fc III/II receptor and 10% normal mouse serum (NMS) in PBS containing 0.1% BSA, 0.01% NaN3. Cells were permeabilized with saponin and stained for the surface markers CD80 (clone 16-10A1), CD86 (clone GL1), MHCI (clone 28-14-8), MHCII (clone M5/114.15.2) and for the cytokines IL-12p40/p70 (clone C17.8) and IL-10 (clone JESS-16E3). Incubations were carried out for 30 min on ice. All antibodies were purchased from BD Biosciences or eBioscience. For each sample, at least 50,000 cells were analyzed. The data were collected and analyzed using CELLQuest software and a FACScalibur flow cytometer (Becton Dickinson, San Jose, Calif.)."}, "[6]": {"settings": "L. major-infected J774, PZA 10 μM"}, "[7]": {"settings": "L. major-infected J774, PZA 100 μM"}}, "data": [{"smiles": "NC(=O)c1cnc(Cl)cn1", "note": "[5-Cl PZA, 5-chloro pyrazinamide]", "values": [{"measurement": "NO production", "setting": "[1]; infected with L. major (Lm)", "value": "1599 ± 812"}, {"measurement": "TNF-α production", "setting": "[1]; infected with L. major (Lm)", "value": "1928 ± 444"}, {"measurement": "NO production", "setting": "[1]; uninfected", "value": "1145 ± 721"}, {"measurement": "TNF-α production", "setting": "[1]; uninfected", "value": "1598 ± 542"}, {"measurement": "activity at killing leishmanial species relative to PZA", "setting": "[2]; old- and new-world leishmanial species in J774 cells", "value": 10, "unit": "fold"}, {"measurement": "MIC", "setting": "[2]; variety of old- and new-world leishmanial species in J774 cells, 48 hr", "value": "1 to 13", "unit": "µM"}, {"measurement": "average lesion size compared to untreated controls", "setting": "[3]; 5-Cl PZA oral, 150 mg/kg", "value": "significant reduction in average lesion size"}, {"measurement": "expression of costimulatory molecules CD80, CD86 and MHC Class II", "setting": "[4]", "value": "enhanced"}, {"measurement": "proinflammatory cytokines stimulated relative to PZA", "setting": "[5]; IL-2 production (FIG. 9B), also in Leishmania-infected macrophages", "value": 2, "unit": "×"}, {"measurement": "production of cytokines (IL-12, TNF-α) and NO release", "setting": "[5]", "value": "increased"}]}, {"smiles": "NC(=O)c1cnccn1", "note": "[PZA, pyrazinamide]", "values": [{"measurement": "NO production", "setting": "[1]; infected with L. major (Lm)", "value": "699 ± 112"}, {"measurement": "TNF-α production", "setting": "[1]; infected with L. major (Lm)", "value": "921 ± 345"}, {"measurement": "NO production", "setting": "[1]; uninfected", "value": "543 ± 221"}, {"measurement": "TNF-α production", "setting": "[1]; uninfected", "value": "758 ± 246"}, {"measurement": "killing of Leishmania species", "setting": "[2]; J774 cells infected with Leishmania, 48 hr post treatment (FIG. 8)", "value": "killed old-world and new-world VL leishmanial species"}, {"measurement": "parasite burden in ears after healing", "setting": "[3]; 12 weeks post infection", "value": "comparable among all experimental groups"}, {"measurement": "average lesion size compared with untreated mice", "setting": "[3]; PZA oral 900-150 mg/kg, four weeks, five days a week, all time points", "value": "significant (P=0.0001) reduction of the average lesion size"}, {"measurement": "decrease of parasite burden in infected ears compared to untreated control", "setting": "[3]; PZA oral, week 6 post infection", "value": 100, "unit": "fold"}, {"measurement": "body weight of experimental animals", "setting": "[3]; mouse, in vivo", "value": "no significant differences in body weight"}, {"measurement": "expression of costimulatory molecules CD80, CD86 and MHC Class II", "setting": "[4]", "value": "increased expression"}, {"measurement": "production of cytokines (IL-12, TNF-α) and NO release", "setting": "[5]", "value": "increased"}, {"measurement": "IL-10 production", "setting": "[5]; [6]", "value": "109 ± 39", "unit": "pg/mL"}, {"measurement": "IL-12 production", "setting": "[5]; [6]", "value": "253 ± 68", "unit": "pg/mL"}, {"measurement": "Nitric Oxide production", "setting": "[5]; [6]", "value": "289 ± 55", "unit": "pg/mL"}, {"measurement": "TNF-α production", "setting": "[5]; [6]", "value": "259 ± 163", "unit": "pg/mL"}, {"measurement": "IL-10 production", "setting": "[5]; [7]", "value": "112 ± 44", "unit": "pg/mL"}, {"measurement": "IL-12 production", "setting": "[5]; [7]", "value": "299 ± 55", "unit": "pg/mL"}, {"measurement": "Nitric Oxide production", "setting": "[5]; [7]", "value": "498 ± 74", "unit": "pg/mL"}, {"measurement": "TNF-α production", "setting": "[5]; [7]", "value": "489 ± 154", "unit": "pg/mL"}, {"measurement": "IL-10 production", "setting": "[5]; uninfected J774, PZA 10 μM", "value": "112 ± 45", "unit": "pg/mL"}, {"measurement": "IL-12 production", "setting": "[5]; uninfected J774, PZA 10 μM", "value": "178 ± 38", "unit": "pg/mL"}, {"measurement": "Nitric Oxide production", "setting": "[5]; uninfected J774, PZA 10 μM", "value": "254 ± 44", "unit": "pg/mL"}, {"measurement": "TNF-α production", "setting": "[5]; uninfected J774, PZA 10 μM", "value": "245 ± 159", "unit": "pg/mL"}, {"measurement": "IL-10 production", "setting": "[5]; uninfected J774, PZA 100 μM", "value": "145 ± 56", "unit": "pg/mL"}, {"measurement": "IL-12 production", "setting": "[5]; uninfected J774, PZA 100 μM", "value": "359 ± 65", "unit": "pg/mL"}, {"measurement": "Nitric Oxide production", "setting": "[5]; uninfected J774, PZA 100 μM", "value": "476 ± 52", "unit": "pg/mL"}, {"measurement": "TNF-α production", "setting": "[5]; uninfected J774, PZA 100 μM", "value": "377 ± 105", "unit": "pg/mL"}]}]}
